Key:
Assay type in all cases: functional, organism-based
Conditions in all cases: Giardia duodenalis
[1] = tested on: Giardia intestinalis; assay: Antimicrobial activity against Giardia lamblia assemblage A WB C6 ATCC 30957 cyst
[2] = tested on: Giardia intestinalis; assay: Antimicrobial activity against Giardia lamblia assemblage A WB C6 ATCC 30957 trophozoites
[3] = tested on: Giardia intestinalis; assay: Antimicrobial activity against Giardia lamblia GS/M assessed as reduction in trophozoites formation

Structure (SMILES)	IC50 [1] [µM]	IC50 [2] [µM]	EC50 [3] [µM]
COc1ccc(Cn2cc(C#Cc3cn(C[C@H]4O[C@@H](n5ccc(=O)n(Cc6ccc(OC)cc6)c5=O)[C@@H]5OC(C)(C)O[C@@H]54)nn3)c(=O)n(Cc3ccc(OC)cc3)c2=O)cc1	5	36	
Cc1ncc([N+](=O)[O-])n1CCO [METRONIDAZOLE]			5.2
CC1(C)O[C@@H]2[C@H](O1)[C@@H](Cn1cc(C#Cc3c[nH]c(=O)[nH]c3=O)nn1)O[C@H]2n1ccc(=O)[nH]c1=O	> 50	5	
O=c1ccn([C@@H]2O[C@H](Cn3cc(C#CC#Cc4cn(C[C@H]5O[C@@H](n6ccc(=O)[nH]c6=O)[C@H](O)[C@@H]5O)nn4)nn3)[C@@H](O)[C@H]2O)c(=O)[nH]1	> 50	47	
O=c1ccn([C@@H]2O[C@H](Cn3cc(C#Cc4c[nH]c(=O)[nH]c4=O)nn3)[C@@H](O)[C@H]2O)c(=O)[nH]1	20	36	
CC1(C)O[C@@H]2[C@H](O1)[C@@H](Cn1cc(CCCCc3cn(C[C@H]4O[C@@H](n5ccc(=O)[nH]c5=O)[C@@H]5OC(C)(C)O[C@@H]54)nn3)nn1)O[C@H]2n1ccc(=O)[nH]c1=O	> 50	47	
